The text below walks through data of patent US11541132B2, “Radiolabeled compounds” (Hoffmann-La Roche Inc., priority 2017, dated 2023).

Molecules are shown by their SMILES. Where two headings read alike, the source gives them in different places.

Assay [1] deals with T1, native Aβ aggregates in human AD brain tissue sections (Homo sapiens, UniProt P05067).
T1 construct: native Aβ aggregates in human AD brain tissue samples; from tissue; host or cells: human AD brain tissue sections
The experiment in a line: Aβ in vitro displacement assay (selectivity counterscreen, [3H]Example 3 autoradiography). The assay is classed as binding. To be noted: for inhibition at 1 µM: read-out: sel. counterscreen PCT_INHIB AD @ 1 μM (% displacement of [3H]Example 3). (In general: A counterscreen serves to expose hits that act by an unwanted route or on another target.)

The target of assay [2] is T2, native aSyn aggregates in A30P transgenic mouse brain sections (Homo sapiens, UniProt P37840, A30P).
T2 construct: from tissue; host or cells: brain sections (midbrain and pons as ROI) of A30P transgenic mice, line B6.D2-Tg(Thy1-SNCA*30P)31Pjk
The experiment in a line: aSyn in vitro displacement assay ([3H]Example-3 autoradiography). The format is binding, mutant human aSyn gene). To be noted: for inhibition at 1 µM: read-out: PCT_INHIB A30P @ 1 μM (% displacement of [3H]Example-3). (In general: Displacement assays read how much labelled ligand stays bound in the presence of the test substance.)

[3] abbreviates: 1 μM compound, 3 nM [3H]Example 3, human AD brain sections.
Where [4] appears, read: 1 μM compound, 3 nM [3H]Example-3, A30P transgenic mouse brain sections.

T1 sequence (P05067 672-713 limits assumed): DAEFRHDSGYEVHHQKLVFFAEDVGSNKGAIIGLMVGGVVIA

Regarding `COc1ccc(C(=O)Nc2ccc(N3CCN(c4cccc(F)c4)CC3)cc2)cc1` [Example 104, N-[4-[4-(3-Fluorophenyl)piperazin-1-yl]phenyl]-4-methoxy-benzamide], the inhibition at 1 µM in assay [1] (setting [3]) amounted to 100%; in assay [2] (setting [4]), 98%.
In the same order, the values of `Cc1ccc(C(=O)Nc2ccc(N3CCN(c4nccs4)CC3)cc2)c(F)c1` [Example 21, 2-Fluoro-4-methyl-N-[4-[4-(1,3-thiazol-2-yl)piperazin-1-yl]phenyl]benzamide] are 91% and 85%.
For `N#Cc1ccc(N2CCN(c3ccc(NC(=O)c4ccc(OCCOCCF)cc4)cc3)CC2)cc1` [Example 122, N-(4-(4-(4-cyanophenyl)piperazin-1-yl)phenyl)-4-(2-(2-fluoroethoxy)ethoxy) benzamide], in that order: 85% and 88%.
In the same order, the values of `COc1ccc(C(=O)Nc2ccc(N3CCN(c4ccc(OC)nc4)CC3)cc2)cc1` [Example 58, 4-Methoxy-N-[4-[4-(6-methoxypyridin-3-yl)piperazin-1-yl]phenyl]benzamide] are 92% and 93%.
Regarding `O=C(Nc1ccc(N2CCN(c3cccs3)CC2)cc1)c1ccc(N2CCOCC2)cc1` [Example 94, 4-Morpholino-N-(4-(4-(thiophen-2-yl)piperazin-1-yl)phenyl)benzamide], the inhibition at 1 µM in assay [1] (setting [3]) is 93%; in assay [2] (setting [4]), 81%.
As for `CC(C)(C)[Si](C)(C)OC(CF)COc1ccc(C(=O)Nc2ccc(N3CCN(c4ccccn4)CC3)cc2)cc1` (racemic) [Example 124, rac-4-(2-((tert-Butyldimethylsilyl)oxy)-3-fluoropropoxy)-N-(4-(4-(pyridin-2-yl)piperazin-1-yl)phenyl)benzamide], the inhibition at 1 µM is 91% in assay [1] and 82% in assay [2].
Take `CN1CCN(c2ccc(C(=O)Nc3cnc(N4CCN(c5ccccn5)CC4)nc3)cc2)CC1` [Example 73, 4-(4-Methylpiperazin-1-yl)-N-(2-(4-(pyridin-2-yl)piperazin-1-yl)pyrimidin-5-yl)benzamide]: the figures for the inhibition at 1 µM in assay [1] (setting [3]) and in assay [2] (setting [4]) were 91% and 88%, respectively.
For `COc1ccc(C(=O)Nc2cnc(N3CCN(c4ccccn4)CC3)nc2)cc1` [Example 59, 4-Methoxy-N-(2-(4-(pyridin-2-yl)piperazin-1-yl)pyrimidin-5-yl)benzamide], in that order: 97% and 85%.
For `O=C(Nc1ccc(N2CCN(c3ccccn3)CC2)cc1)c1ccc2nccn2c1` [Example 17, N-(4-(4-(Pyridin-2-yl)piperazin-1-yl)phenyl)imidazo[1,2-a]pyridine-6-carboxamide], the figures for the inhibition at 1 µM in assay [1] (setting [3]) and in assay [2] (setting [4]) were 98% and 87%, respectively.
In the same order, the values of `COc1ccc(C(=O)Nc2ccc(N3CCN(c4cccnc4OC)CC3)cc2)cc1` [Example 67, 4-Methoxy-N-{4-[4-(2-methoxypyridin-3-yl)piperazin-1-yl]phenyl}benzamide] are 88% and 94%.
For `Cc1ccc(C(=O)Nc2ccc(N3CCN(c4ccccn4)CC3)cn2)nc1` [Example 53, 5-Methyl-N-(5-(4-(pyridin-2-yl)piperazin-1-yl)pyridin-2-yl)picolinamide], in that order: 86% and 82%.
In the same order, the values of `COc1ccc(C(=O)Nc2cnc(N3CCN(c4ccccn4)CC3)cn2)cc1` [Example 85, 4-Methoxy-N-(5-(4-(pyridin-2-yl)piperazin-1-yl)pyrazin-2-yl)benzamide] are 107% and 98%.
For the molecule `O=C(Nc1ccc(N2CCN(c3cccnc3)CC2)cc1)c1ccc(N2CCOCC2)cc1` [Example 39, 4-Morpholino-N-(4-(4-(pyridin-3-yl)piperazin-1-yl)phenyl)benzamide], the inhibition at 1 µM was 69% in assay [1] (setting [3]) and 87% in assay [2] (setting [4]).
As to `C#CCOCCOc1ccc(C(=O)Nc2ccc(N3CCN(c4ccc(C#N)cn4)CC3)cc2)cc1` [Example 175, N-[4-[4-(5-Cyano-2-pyridyl)piperazin-1-yl]phenyl]-4-(2-prop-2-ynoxyethoxy)benzamide], the inhibition at 3 µM in assay [1] (3 μM compound, 3 nM [3H]Example 3, human AD brain sections, read-out: sel. counterscreen PCT_INHIB AD @ 3 μM) worked out at 98%; in assay [2] (3 μM compound, 3 nM [3H]Example-3, A30P transgenic mouse brain sections, read-out: PCT_INHIB A30P @ 3 μM), 85%.
With `COc1ccc(C(=O)Nc2ccc(N3CCN(c4ccc(C#N)cn4)CC3)cc2)cn1` [Example 171, N-(4-(4-(5-Cyanopyridin-2-yl)piperazin-1-yl)phenyl)-6-methoxynicotinamide], the inhibition at 1 µM in assay [1] (setting [3]) stood at 92%; in assay [2] (setting [4]), 89%.
For the molecule `COc1ccc(C(=O)Nc2ccc(N3CCN(c4ccccn4)CC3)cn2)c(C)c1` [Example 80, 4-Methoxy-2-methyl-N-[5-(4-pyridin-2-ylpiperazin-1-yl)pyridin-2-yl]benzamide], the inhibition at 1 µM in assay [1] (setting [3]) amounted to 94%; in assay [2] (setting [4]), 90%.
With `N#Cc1ccc(N2CCN(c3ccc(NC(=O)c4ccc(OCC(O)CF)cc4)cc3)CC2)cc1` (racemic) [Example 131, rac-N-(4-(4-(4-Cyanophenyl)piperazin-1-yl)phenyl)-4-(3-fluoro-2-hydroxypropoxy)benzamide], the inhibition at 1 µM in assay [1] (setting [3]) worked out at 90%; in assay [2] (setting [4]) it was 88%.
In the same order, the values of `Cc1cccc(C(=O)Nc2cnc(N3CCN(c4ccccn4)CC3)nc2)c1` [Example 64, 3-Methyl-N-(2-(4-(pyridin-2-yl)piperazin-1-yl)pyrimidin-5-yl)benzamide] are 92% and 88%.
For `COc1ccc(C(=O)Nc2ccc(N3C[C@H]4CN(c5ccccn5)C[C@@H]4C3)cc2)cc1` [Example 132, 4-Methoxy-N-(4-((3aS,6aS)-5-(pyridin-2-yl)hexahydropyrrolo[3,4-c]pyrrol-2(1H)-yl)phenyl)benzamide], in that order: 20% and 82%.
In the same order, the values of `COc1ccc(C(=O)Nc2ccc(N3CCN(c4ccc(C#N)cc4)CC3)cc2)cc1F` [Example 163, N-(4-(4-(4-Cyanophenyl)piperazin-1-yl)phenyl)-3-fluoro-4-methoxybenzamide] are 92% and 94%.
Consider `Cn1cc(C(=O)Nc2ccc(N3CCN(c4ccc(C#N)cc4)CC3)cc2)cn1` [Example 158, N-(4-(4-(4-Cyanophenyl)piperazin-1-yl)phenyl)-1-methyl-1H-pyrazole-4-carboxamide], for which the inhibition at 1 µM in assay [1] (setting [3]) amounted to 87%; in assay [2] (setting [4]), 83%.
As to `COc1ccc(C(=O)Nc2ccc(N3CCN(c4ccc(C#N)cc4)CC3)cc2)nc1` [Example 166, N-(4-(4-(4-Cyanophenyl)piperazin-1-yl)phenyl)-5-methoxypicolinamide], the inhibition at 1 µM is 70% in assay [1] (setting [3]) and 81% in assay [2] (setting [4]).
Take `Cc1ccc(C(=O)Nc2cnc(N3CCN(c4ccccn4)CC3)cn2)nc1` [Example 90, 5-Methyl-N-(5-(4-(pyridin-2-yl)piperazin-1-yl)pyrazin-2-yl)picolinamide]: the inhibition at 1 µM in assay [1] (setting [3]) was determined as 74%; in assay [2] (setting [4]), 85%.
For `COc1ccc(C(=O)Nc2ccc(N3CCN(c4ccccc4C#N)CC3)cc2)cc1` [Example 70, N-{4-[4-(2-Cyanophenyl)piperazin-1-yl]phenyl}-4-methoxybenzamide], in that order: 64% and 84%.
For `N#Cc1ccc(N2CCN(c3ccc(NC(=O)c4ccc(OCF)cc4)cc3)CC2)nc1` [Example 136, N-(4-(4-(5-cyanopyridin-2-yl)piperazin-1-yl)phenyl)-4-(fluoromethoxy) benzamide], in that order: 92% and 91%.
For `CN(C)c1ccc(C(=O)Nc2ccc(N3CCN(c4ccccn4)CC3)cn2)cc1` [Example 46, 4-(Dimethylamino)-N-(5-(4-(pyridin-2-yl)piperazin-1-yl)pyridin-2-yl)benzamide], in that order: 96% and 94%.
Take `COc1ccc(C(=O)Nc2ccc(N3CCN(c4ccc(C#N)cc4)CC3)cc2)c(C)c1` [Example 168, N-(4-(4-(4-Cyanophenyl)piperazin-1-yl)phenyl)-4-methoxy-2-methylbenzamide]: the inhibition at 1 µM amounted to 96% in assay [1] (setting [3]) and 95% in assay [2] (setting [4]).
For `COc1ccc(C(=O)Nc2ccc(N3C[C@@H]4CN(c5ccccn5)C[C@H]4C3)cc2)cc1` [Example 133, 4-Methoxy-N-(4-((3aR,6aR)-5-(pyridin-2-yl)hexahydropyrrolo[3,4-c]pyrrol-2(1H)-yl)phenyl)benzamide], in that order: 84% and 85%.
For `CN(C)c1ccc(C(=O)Nc2cnc(N3CCN(c4ccccn4)CC3)cn2)cc1` [Example 86, 4-(Dimethylamino)-N-(5-(4-(pyridin-2-yl)piperazin-1-yl)pyrazin-2-yl)benzamide], in that order: 100% and 95%.
With `Cc1ccc(C(=O)Nc2ccc(N3CCN(c4ccccn4)CC3)cn2)cc1` [Example 45, 4-Methyl-N-(5-(4-(pyridin-2-yl)piperazin-1-yl)pyridin-2-yl)benzamide], the inhibition at 1 µM turned out to be 98% in assay [1] (setting [3]) and 97% in assay [2] (setting [4]).
